“Also recorded” adds a separate entry of the source. Marks after values point to notes of the source that are not given here.
Test system: intestinal adenomas in Min mice (Apc^min/Apc^+)
Assay: Intestinal tumorigenesis in Min mice fed treatment diets for 10 weeks (adenoma number and size)
Format: in vivo
Conditions: for Adenoma numbers in the small intestine, Distal / Adenoma numbers in the small intestine, Middle / Adenoma numbers in the small intestine, Proximal / Total Adenoma Diameter in the small intestine / Adenoma numbers in the small intestine, Total: 800 ppm anthocyanins; for Adenoma numbers in the small intestine, Distal / Adenoma numbers in the small intestine, Middle / Adenoma numbers in the small intestine, Proximal / Total Adenoma Diameter in the small intestine: 200 ppm cyanidin or 200 ppm sulindac in drinking water, or 20% cherries diet; for Adenoma numbers in the small intestine, Distal / Adenoma numbers in the small intestine, Middle / Adenoma numbers in the small intestine, Proximal / Total Adenoma Diameter in the small intestine / Adenoma numbers in the small intestine, Total / Colon Total adenoma Volume / Cecal Total adenoma Volume / Cecum adenoma Number / Colon adenoma Number / Mean Adenoma Diameter in the small intestine / Average number of solid tumors, Cecum / Average number of solid tumors, Colon / Average number of solid tumors, Total (cecum and colon): mean ± SEM; for Adenoma numbers in the small intestine, Total: 200 ppm cyanidin or 200 ppm sulindac in drinking water, or 20% freeze-dried cherries in diet; for Colon Total adenoma Volume / Cecal Total adenoma Volume / Cecum adenoma Number / Colon adenoma Number / Mean Adenoma Diameter in the small intestine / Average number of solid tumors, Cecum / Average number of solid tumors, Colon / Average number of solid tumors, Total (cecum and colon): same treatments; for Cecal Total adenoma Volume / Cecum adenoma Number / Colon adenoma Number / Mean Adenoma Diameter in the small intestine: different superscripts = significant differences (P < 0.05); for Average number of solid tumors, Cecum / Average number of solid tumors, Colon / Average number of solid tumors, Total (cecum and colon): three-dimensional raised tumors
Text: Forty-eight Min mice were randomly assigned to five treatment groups at 4-5 weeks of age and fed treatment diets for 10 weeks. The treatments were:
1) Modified AIN-93G control diet, 2) The control diet +800 ppm anthocyanins in drinking water, 3) The control diet+200 ppm cyanidin in drinking water, 4) The control diet+200 ppm sulindac in drinking water, 5) Modified control diet containing 20% freeze dried pitted tart cherries. Only mean diameter, not the number of adenomas in the small intestine was reduced by sulindac, whereas diameter was increased by cherry diet (p<0.05).
All research was conducted with approval of the Michigan State University, East Lansing, Mich., All-University Committee on animal use and care. Mice were housed in MSU Laboratory, Animal Resources maintained facilities. A colony of Min mice was maintained by crossing male Min mice (Apc^min/Apc^+) with normal adult C57BL/6J female mice. Mice were housed in a temperature and humidity-controlled room (20-22° C., 70%) with a 12-h light/dark cycle. At three weeks of age, mice were bled from the dorsal pedal vein (30 μL) for genotyping analysis to identify Apc^min/Apc^+ using polymerase chain reaction (PCR) analysis and subsequent gel electrophoresis analysis. Forty-eight Min mice identified were randomly assigned to five treatment groups (7 to 11 per treatment) at 4 or 5 weeks of age and fed treatment diets for 10 weeks. The treatments were:
1) Modified AIN-93G control diet and 50 ppm ascorbic acid in drinking water (n=11)
2) The control diet+50 ppm ascorbic acid and 800 ppm anthocyanins in drinking water (n=9)
3) The control diet+50 ppm ascorbic acid and 200 ppm cyanidin in drinking water (n=7)
4) The control diet+50 ppm ascorbic acid and 200 ppm sulindac in drinking water (n=10)
5) 20% freeze-dried cherries+50 ppm ascorbic acid in drinking water (n=11).
Ingredient composition of diets is in Table 1. All diets contained 22% protein, 15% fat (soybean oil) and 5% cellulose contents. Distilled water was used for drinking water. Ascorbic acid was added to provide low pH for keeping anthocyanins and cyanidin in solution since they are stable only under pH 7. The concentration of sulindac (200 ppm) was based on the effective range found from most studies that have shown sulindac to reduce intestinal neoplasia. Cyanidin concentration (200 ppm) was matched to that of sulindac. Anthocyanins was tested at the level four times the cyanidin concentration because anthocyanins are the glycosylated cyanidin and the level (800 ppm) has equivalent amount of flavylium cation. Red tart pitted cherries (Peerson Farms, Inc., Shelby, Mich.) were frozen, freeze-dried, ground using plate grinder, and then screened to pass a 1 mm screen before they were incorporated into the diet at the expense of sucrose, cornstarch and dyetrose. One hundred grams of the experimental diet included 23 g of ground cherries to make 20% of cherries in the diet because dry matter of cherries was 75%, whereas that of AIN-93G diet was 91%.
Body weight was measured once a week until mice were sacrificed at the end of treatment period. Upon sacrifice by carbon dioxide asphyxiation, the liver was removed and frozen immediately for confirmatory PCR analysis. The entire small intestine, cecum, and colon were removed from each mouse to determine the number and size of adenomas. The tissues were separated into the following sections: proximal one-third of small intestine, middle one-third of small intestine, distal one-third of small intestine, cecum, and colon. All intestinal sections were opened longitudinally, rinsed thoroughly with water, fixed overnight in 10% neutral-buffered formalin, and then stained with 0.2% methylene blue. Tumor number and size (diameter for flat tumors or volume in the case of three-dimensional tumors) were determined in each intestinal segment on 1 mm grid transparency by direct counting with the aid of a dissecting microscope. […]

SMILES	Adenoma numbers in the small intestine, Distal	Adenoma numbers in the small intestine, Middle	Adenoma numbers in the small intestine, Proximal	Total Adenoma Diameter in the small intestine [mm]	Adenoma numbers in the small intestine, Total	Colon Total adenoma Volume [mm^3]	Cecal Total adenoma Volume	Cecum adenoma Number	Colon adenoma Number	Mean Adenoma Diameter in the small intestine	Average number of solid tumors, Cecum	Average number of solid tumors, Colon	Average number of solid tumors, Total (cecum and colon)	Intestinal site of inhibited tumorigenesis (conclusion in words)	Number of cecal adenomas compared to controls (in words)	Size (volume) of adenomas in the cecum (in words)	Trend in number of adenoma in the proximal section of the small intestine (in words) (P=0.05)	Number of colonic adenomas (in words) (p<0.05)	Mean diameter (size) of adenoma in the small intestine, effect compared to control diet (in words) (p<0.05, listed as sulindac)	Number of colonic adenomas (in words) (p<0.05, listed as sulindac)
Oc1cc(O)c2cc(O)c(-c3ccc(O)c(O)c3)[o+]c2c1 [Cyanidin]	20.0 ± 7.8	15.7 ± 5.8	15.6 ± 3.5	67.4 ± 22.0	51.3 ± 15.8	3.51 ± 2.24	0.56 ± 0.96^b mm^3	0.57 ± 0.63^b	3.71 ± 0.80^ab	1.25 ± 0.11^b mm	0.00 ± 0.13	0.14 ± 0.21	0.14 ± 0.25	–	–	–	–	–	–	–
CC1=C(CC(=O)O)c2cc(F)ccc2/C1=C\c1ccc([S+](C)[O-])cc1 (stereo not drawn) [Sulindac, sulindac]	10.0 ± 6.5	9.1 ± 4.9	5.6 ± 2.9	23.5 ± 18.4	24.7 ± 13.2	3.35 ± 1.88	4.00 ± 0.81^a mm^3	4.00 ± 0.53^c	5.30 ± 0.67^b	0.93 ± 0.10^a mm	0.20 ± 0.11	0.20 ± 0.17	0.40 ± 0.21	inhibits small intestinal tumorigenesis	significantly more cecal adenomas than controls; also recorded: significantly higher number of cecal adenomas; also recorded: increased the number of adenomas in cecum and colon	increased	reduced	twice as many adenomas as those of mice in cherry diet	significantly reduced the size of adenomas in small intestine	greatest number of colonic adenomas; also recorded: increased the number of adenomas in cecum and colon
